Results reported in US9453062B2, “Glucose dependent insulinotropic polypeptide analogs, pharmaceutical compositions and use thereof” (Beijing Hanmi Pharmaceutical Co., Ltd., priority 2011, dated 2016).
Where two headings read alike, the source gives them in different places. Where a SMILES comes first, the peptide text is derived from it. Bridges are numbered along the chain shown (N, C = ends). Where no end group is shown, it is not given here. [ ]: non-standard residue; d: D form. The star is where a group is joined. Phe(4-NO2) = N[C@@H](Cc1ccc([N+](=O)[O-])cc1)C(=O)O; Palmitoyl = CCCCCCCCCCCCCCCC(=O)*; Met(O) = CS(=O)CC[C@H](N)C(=O)O; Phg = N[C@H](C(=O)O)c1ccccc1; Nle = CCCC[C@H](N)C(=O)O; Aib = CC(C)(N)C(=O)O

Tests used:
hGIPR = target: T1, hGIPR (Homo sapiens, UniProt P48546); assay: hGIPR-mediated cAMP induction assay in CHO cell line; format: cell-based; conditions: for GIP Receptor Relative Potency / EC50: Table 3; for GIP Receptor Relative Potency: against native GIP; for EC50: CHO hGIPR cells
T1 construct: expressed in transfected cells; host or cells: CHO
T1 sequence (P48546 22-466): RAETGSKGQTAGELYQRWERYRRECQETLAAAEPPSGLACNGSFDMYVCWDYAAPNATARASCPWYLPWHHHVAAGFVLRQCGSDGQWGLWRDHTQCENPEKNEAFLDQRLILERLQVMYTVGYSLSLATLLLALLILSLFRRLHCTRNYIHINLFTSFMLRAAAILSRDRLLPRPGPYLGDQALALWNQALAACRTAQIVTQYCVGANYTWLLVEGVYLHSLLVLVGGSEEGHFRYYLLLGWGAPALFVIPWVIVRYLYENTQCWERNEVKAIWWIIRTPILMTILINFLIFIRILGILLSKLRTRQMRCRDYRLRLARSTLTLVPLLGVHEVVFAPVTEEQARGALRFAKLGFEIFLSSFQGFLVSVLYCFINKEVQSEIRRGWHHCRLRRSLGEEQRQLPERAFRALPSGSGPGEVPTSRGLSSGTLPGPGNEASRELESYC

hGLP-1R = target: T2, hGLP-1R (Homo sapiens, UniProt P43220); assay: hGLP-1R-mediated cAMP induction assay in CHO cell line; format: cell-based; conditions: for GLP-1 Receptor Relative Potency: against native GLP-1;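 as to all read-outs here: CHO cells expressing human GLP-1R, treated 30 min at 37 °C, intracellular cAMP measured by competitive fluorescent immunoassay and converted via a cAMP standard curve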
T2 construct: expressed in transfected cells; host or cells: CHO
T2 sequence (P43220 24-463): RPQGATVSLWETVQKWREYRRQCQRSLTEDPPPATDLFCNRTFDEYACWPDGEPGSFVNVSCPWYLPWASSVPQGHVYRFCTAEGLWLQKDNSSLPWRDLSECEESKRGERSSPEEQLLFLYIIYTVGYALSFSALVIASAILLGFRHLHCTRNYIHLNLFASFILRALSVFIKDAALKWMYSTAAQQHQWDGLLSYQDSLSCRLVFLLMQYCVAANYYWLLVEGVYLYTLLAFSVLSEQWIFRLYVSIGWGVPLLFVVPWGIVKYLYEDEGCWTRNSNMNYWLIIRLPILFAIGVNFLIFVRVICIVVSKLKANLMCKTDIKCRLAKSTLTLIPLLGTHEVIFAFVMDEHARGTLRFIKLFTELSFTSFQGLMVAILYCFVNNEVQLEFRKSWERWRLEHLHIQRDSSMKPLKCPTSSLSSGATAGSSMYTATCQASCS
Source text: The cAMP in the sample or standard competes with horseradish peroxidase (HRP)-labeled cAMP conjugate for binding sites on the anti-cAMP antibodies. In the absence of cAMP, most of the HRP-cAMP conjugate is bound to the antibody. Increasing concentrations of cAMP competitively decrease the amount of bound conjugate, thus decreasing measured HRP activity.
Assay kit: CatchPoint™ Cyclic-AMP Fluorescent Assay Kit (Molecular Devices, Product # R8088)
Cell lines: CHO hGLP1R, CHO hGIPR
Cell seeding: CHO hGLP1R or CHO hGIPR cells: 10,000 cells/well/100 uL at 37° C. 5% CO2 overnight.
Gently aspirate off media and wash the cells with KRBG Buffer, 100 uL/well.
Incubate the plate for 10 min at room temperature. Then add the KRBG buffer with 3× final concentration of the tested samples (5-foled series diluted from 5,000 nM), 50 uL/well. Incubate the plate at 37° C. 5% CO2 for 30 min.
Add 50 uL of Lysis buffer to each well and put the plate on a shaker for 10 min.
Place 40 uL of samples and analyze in appropriate wells. And test the cAMP concentration in each sample by following the manufacture's instruction.
Detect the fluorescence signal at Ex: 490 nm and Em: 530 nm. Transfer the FI signal to cAMP concentration by the cAMP standard curve. The Dose-response curve and EC50 were obtained by logistic fitting of Origin 8.

| Compound | GIP Receptor Relative Potency (hGIPR) | EC50 (hGLP-1R; Table 3, CHO hGLP1R cells) | GLP-1 Receptor Relative Potency (hGLP-1R; Table 3) | EC50 (hGIPR) | GIPR activation (GIP activity) against native GIP (hGIPR; CHO/hGIPR cell assay) | GLP-1R activation (GLP-1 activity) against native GLP-1 (hGLP-1R) | EC50 (hGLP-1R) |
| --- | --- | --- | --- | --- | --- | --- | --- |
| CC[C@H](C)[C@H](NC(=O)[C@H](Cc1ccccc1)NC(=O)[C@H](CCC(=O)O)NC(=O)[C@@H]1CCC(=O)NCCCC[C@H](NC(=O)[C@H](CCC(=O)O)NC(=O)[C@H](CCSC)NC(=O)[C@H](Cc2ccc(O)cc2)NC(=O)[C@@H](NC(=O)[C@H](CO)NC(=O)[C@H](Cc2ccc(O)cc2)NC(=O)[C@H](CC(=O)O)NC(=O)[C@H](CO)NC(=O)[C@@H](NC(=O)[C@H](Cc2ccccc2)NC(=O)[C@@H](NC(=O)CNC(=O)[C@H](CCC(=O)O)NC(=O)C(C)(C)NC(=O)[C@@H](N)Cc2ccc(O)cc2)[C@@H](C)O)[C@@H](C)O)[C@@H](C)CC)C(=O)N[C@@H](CCC(=O)O)C(=O)N[C@@H](C)C(=O)N[C@@H](C(C)C)C(=O)N1)C(=O)N[C@@H](C)C(=O)N[C@@H](Cc1c[nH]c2ccccc12)C(=O)N[C@@H](CC(C)C)C(=O)N[C@H](C(=O)N[C@@H](CCCCN)C(=O)NCC(N)=O)C(C)C [Compound 053-2] (H-Y[Aib]EGTFTSDYSIYMEKEAVEEFIAWLVKG-NH2; lactam 16-20; N-terminus assumed) | 35.4 | 2.95 nM | 37 |  |  |  |  |
| CC[C@H](C)[C@H](NC(=O)[C@H](Cc1ccccc1)NC(=O)[C@H](CCC(=O)O)NC(=O)[C@H](CCCNC(=N)N)NC(=O)[C@@H](NC(=O)[C@H](C)NC(=O)[C@H](CCC(=O)O)NC(=O)[C@H](CCCCN)NC(=O)[C@H](CCC(=O)O)NC(=O)[C@H](CCSC)NC(=O)[C@H](Cc1ccc(O)cc1)NC(=O)[C@@H](NC(=O)[C@H](CO)NC(=O)[C@H](Cc1ccc(O)cc1)NC(=O)[C@H](CC(=O)O)NC(=O)[C@H](CO)NC(=O)[C@@H](NC(=O)[C@H](Cc1ccccc1)NC(=O)[C@@H](NC(=O)CNC(=O)[C@H](CCC(=O)O)NC(=O)C(C)(C)NC(=O)[C@@H](N)Cc1ccc(O)cc1)[C@@H](C)O)[C@@H](C)O)[C@@H](C)CC)C(C)C)C(=O)N[C@@H](C)C(=O)N[C@@H](Cc1c[nH]c2ccccc12)C(=O)N[C@@H](CC(C)C)C(=O)N[C@H](C(=O)N[C@@H](CCCCN)C(=O)NCC(=O)N[C@@H](CCCNC(=N)N)C(=O)N[C@@H](CCCNC(=N)N)C(=O)N[C@@H](CCCNC(=N)N)C(=O)N[C@@H](CCCNC(=N)N)C(=O)N[C@@H](CCCNC(=N)N)C(=O)N[C@@H](CCCNC(=N)N)C(N)=O)C(C)C [Compound 075] (H-Y[Aib]EGTFTSDYSIYMEKEAVREFIAWLVKGRRRRRR-NH2; N-terminus assumed) | 8.3 |  | 77.7 |  |  |  |  |
| CCCCCCCCCCCCCCCC(=O)NCCCC[C@H](NC(=O)[C@H](CO)NC(=O)[C@@H]1CCCN1C(=O)[C@@H]1CCCN1C(=O)[C@@H]1CCCN1C(=O)[C@H](C)NC(=O)CNC(=O)[C@H](CO)NC(=O)[C@H](CO)NC(=O)[C@@H]1CCCN1C(=O)CNC(=O)CNC(=O)[C@H](CCCCN)NC(=O)[C@@H](NC(=O)[C@H](CC(C)C)NC(=O)[C@H](Cc1c[nH]c2ccccc12)NC(=O)[C@H](C)NC(=O)[C@@H](NC(=O)[C@H](Cc1ccccc1)NC(=O)[C@H](CCC(=O)O)NC(=O)[C@H](CCCNC(=N)N)NC(=O)[C@@H](NC(=O)[C@H](C)NC(=O)[C@H](CCC(=O)O)NC(=O)[C@H](CCCCN)NC(=O)[C@H](CCC(=O)O)NC(=O)[C@H](CCSC)NC(=O)[C@H](Cc1ccc(O)cc1)NC(=O)[C@@H](NC(=O)[C@H](CO)NC(=O)[C@H](Cc1ccc(O)cc1)NC(=O)[C@H](CC(=O)O)NC(=O)[C@H](CO)NC(=O)[C@@H](NC(=O)[C@H](Cc1ccccc1)NC(=O)[C@@H](NC(=O)CNC(=O)[C@H](CCC(N)=O)NC(=O)C(C)(C)NC(=O)[C@@H](N)Cc1ccc(O)cc1)[C@@H](C)O)[C@@H](C)O)[C@@H](C)CC)C(C)C)[C@@H](C)CC)C(C)C)C(N)=O [Compound 120] (H-Y[Aib]QGTFTSDYSIYMEKEAVREFIAWLVKGGPSSGAPPPSK(Palmitoyl)-NH2) | 294.9 | 0.253 nM | 586.6 | 0.039 nM |  |  |  |
| CC[C@H](C)[C@H](NC(=O)[C@H](Cc1ccccc1)NC(=O)[C@H](CCC(=O)O)NC(=O)[C@H](CCCNC(=N)N)NC(=O)[C@@H](NC(=O)[C@H](C)NC(=O)[C@H](CCC(=O)O)NC(=O)[C@@H]1CCCCNC(=O)CC[C@H](NC(=O)[C@H](CO)NC(=O)[C@H](Cc2ccc(O)cc2)NC(=O)[C@H](CC(=O)O)NC(=O)[C@H](CO)NC(=O)[C@@H](NC(=O)[C@H](Cc2ccccc2)NC(=O)[C@@H](NC(=O)CNC(=O)[C@H](CCC(=O)O)NC(=O)C(C)(C)NC(=O)[C@@H](N)Cc2ccc(O)cc2)[C@@H](C)O)[C@@H](C)O)C(=O)N[C@@H](Cc2ccc(O)cc2)C(=O)N[C@@H](CCSC)C(=O)N[C@@H](CCC(=O)O)C(=O)N1)C(C)C)C(=O)N[C@@H](C)C(=O)N[C@@H](Cc1c[nH]c2ccccc12)C(=O)N[C@@H](CC(C)C)C(=O)N[C@H](C(=O)N[C@@H](CCCCN)C(=O)NCC(=O)NCC(=O)N1CCC[C@H]1C(=O)N[C@@H](CO)C(=O)N[C@@H](CO)C(=O)NCC(=O)N[C@@H](C)C(=O)N1CCC[C@H]1C(=O)N1CCC[C@H]1C(=O)N1CCC[C@H]1C(=O)N[C@@H](CO)C(N)=O)C(C)C [Compound 081] (H-Y[Aib]EGTFTSDYSEYMEKEAVREFIAWLVKGGPSSGAPPPS-NH2; lactam 12-16) | 250 | 0.77 nM | 124.3 | 0.044 nM |  |  |  |
| CCCCCCCCCCCCCCCC(=O)NCCCC[C@H](NC(=O)[C@H](CO)NC(=O)[C@@H]1CCCN1C(=O)[C@@H]1CCCN1C(=O)[C@@H]1CCCN1C(=O)[C@H](C)NC(=O)CNC(=O)[C@H](CO)NC(=O)[C@H](CO)NC(=O)[C@@H]1CCCN1C(=O)CNC(=O)CNC(=O)[C@H](CCCCN)NC(=O)[C@@H](NC(=O)[C@H](CC(C)C)NC(=O)[C@H](Cc1c[nH]c2ccccc12)NC(=O)[C@@H]1CCC(=O)NCCCC[C@H](NC(=O)[C@@H](NC(=O)[C@H](C)NC(=O)[C@H](CCC(=O)O)NC(=O)[C@H](CCCCN)NC(=O)[C@H](CCC(=O)O)NC(=O)[C@H](CCSC)NC(=O)[C@H](Cc2ccc(O)cc2)NC(=O)[C@@H](NC(=O)[C@H](CO)NC(=O)[C@H](Cc2ccc(O)cc2)NC(=O)[C@H](CC(=O)O)NC(=O)[C@H](CO)NC(=O)[C@@H](NC(=O)[C@H](Cc2ccccc2)NC(=O)[C@@H](NC(=O)CNC(=O)[C@H](CCC(=O)O)NC(=O)C(C)(C)NC(=O)[C@@H](N)Cc2ccc(O)cc2)[C@@H](C)O)[C@@H](C)O)[C@@H](C)CC)C(C)C)C(=O)N[C@@H](CCC(=O)O)C(=O)N[C@@H](Cc2ccccc2)C(=O)N[C@@H]([C@@H](C)CC)C(=O)N1)C(C)C)C(N)=O [Compound 101] (H-Y[Aib]EGTFTSDYSIYMEKEAVKEFIEWLVKGGPSSGAPPPSK(Palmitoyl)-NH2; lactam 20-24) | 328.6 | 0.056 nM | 628.6 | 0.021 nM |  |  |  |
| Tyr-Aib-Glu-Gly-Thr-Phe-Thr-Ser-Asp-Tyr-Ser-Ile-Tyr-Nle-Glu-Lys-Ile-His-Gln-Gln-Asp-Phe-Val-Asn-Trp-Leu-Val-Arg-Gln(NH2) (Y[Aib]EGTFTSDYSIY[Nle]EKIHQQDFVNWLVRQ-NH2) [Analog 021] |  |  |  |  | 21% | around 5% |  |
| CCCC[C@H](NC(=O)[C@@H](NC(=O)[C@@H](NC(=O)[C@H](CO)NC(=O)[C@H](Cc1ccc(O)cc1)NC(=O)[C@H](CC(=O)O)NC(=O)[C@H](CO)NC(=O)[C@@H](NC(=O)[C@H](Cc1ccccc1)NC(=O)[C@@H](NC(=O)CNC(=O)[C@H](CCC(=O)O)NC(=O)C(C)(C)NC(=O)[C@@H](N)Cc1ccc(O)cc1)[C@@H](C)O)[C@@H](C)O)[C@@H](C)CC)c1ccccc1)C(=O)N[C@@H](CCC(=O)O)C(=O)N[C@@H](CCCCN)C(=O)N[C@H](C(=O)N[C@@H](Cc1c[nH]cn1)C(=O)N[C@@H](CCC(N)=O)C(=O)N[C@@H](CCC(N)=O)C(=O)N[C@@H](CC(=O)O)C(=O)N[C@@H](Cc1ccccc1)C(=O)N[C@H](C(=O)N[C@@H](CC(N)=O)C(=O)N[C@@H](Cc1c[nH]c2ccccc12)C(=O)N[C@@H](CC(C)C)C(=O)N[C@@H](CC(C)C)C(=O)N[C@@H](C)C(=O)N[C@@H](CCC(N)=O)C(N)=O)C(C)C)[C@@H](C)CC [Compound 009] (H-Y[Aib]EGTFTSDYSI[Phg][Nle]EKIHQQDFVNWLLAQ-NH2; N-terminus assumed) |  |  |  |  |  |  | > 2000 nM |
| CC[C@H](C)[C@H](NC(=O)[C@H](CO)NC(=O)[C@H](Cc1ccc(O)cc1)NC(=O)[C@H](CC(=O)O)NC(=O)[C@H](CO)NC(=O)[C@@H](NC(=O)[C@H](Cc1ccccc1)NC(=O)[C@@H](NC(=O)CNC(=O)[C@H](CCC(=O)O)NC(=O)C(C)(C)NC(=O)[C@@H](N)Cc1ccc(O)cc1)[C@@H](C)O)[C@@H](C)O)C(=O)N[C@@H](Cc1ccc([N+](=O)[O-])cc1)C(=O)N[C@@H](CC[S+](C)[O-])C(=O)N[C@@H](CCC(=O)O)C(=O)N[C@@H](CCCCN)C(=O)N[C@H](C(=O)N[C@@H](Cc1c[nH]cn1)C(=O)N[C@@H](CCC(N)=O)C(=O)N[C@@H](CCC(N)=O)C(=O)N[C@@H](CC(=O)O)C(=O)N[C@@H](Cc1ccccc1)C(=O)N[C@H](C(=O)N[C@@H](CC(N)=O)C(=O)N[C@@H](Cc1c[nH]c2ccccc12)C(=O)N[C@@H](CC(C)C)C(=O)N[C@@H](CC(C)C)C(=O)N[C@@H](C)C(=O)N[C@@H](CCC(N)=O)C(N)=O)C(C)C)[C@@H](C)CC (stereo partly drawn) [Compound 005] (H-Y[Aib]EGTFTSDYSI[Phe(4-NO2)][Met(O)]EKIHQQDFVNWLLAQ-NH2) |  |  |  |  |  |  | > 2000 nM |
